Each block holds one molecule with its values, some of them ahead of it.
Experiments:
Nfo = biological target: T1, Nfo (Pseudomonas putida, UniProt F8G0M2); test: coupled formate dehydrogenase assay, NADH at […] nm; type: biochemical; conditions: 50 mM Tris-HCl pH 8.0, 20°C, NAD
T1 sequence (F8G0M2 1-255): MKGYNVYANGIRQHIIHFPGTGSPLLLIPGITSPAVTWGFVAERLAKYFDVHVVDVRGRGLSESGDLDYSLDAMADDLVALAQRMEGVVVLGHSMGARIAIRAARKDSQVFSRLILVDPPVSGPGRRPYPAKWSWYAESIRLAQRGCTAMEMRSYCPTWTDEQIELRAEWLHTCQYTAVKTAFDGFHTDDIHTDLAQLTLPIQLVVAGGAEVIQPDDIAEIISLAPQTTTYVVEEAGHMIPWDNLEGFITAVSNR

Ami = biological target: T2, Ami (Pseudomonas putida, UniProt F8G0M0); test: coupled glutamate dehydrogenase assay, NADPH at […] nm; type: biochemical; conditions: 50 mM Tris-HCl, 1 mM EDTA, 20°C, alpha-ketoglutarate
T2 sequence (F8G0M0 1-208): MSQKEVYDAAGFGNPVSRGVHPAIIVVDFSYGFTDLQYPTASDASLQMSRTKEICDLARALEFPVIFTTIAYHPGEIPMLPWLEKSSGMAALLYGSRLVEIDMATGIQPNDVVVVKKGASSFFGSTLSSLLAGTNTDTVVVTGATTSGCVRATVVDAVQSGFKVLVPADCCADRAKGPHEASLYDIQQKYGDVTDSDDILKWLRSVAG

Iso = biological target: T3, Iso (Pseudomonas putida, UniProt F8G0M3); test: spectrophotometric, maleate consumption at […] nm; type: biochemical; conditions: read-out: apparent Km; 50 mM Tris-HCl pH 8.4, 30°C, 1-thioglycerol
T3 sequence (F8G0M3 1-252): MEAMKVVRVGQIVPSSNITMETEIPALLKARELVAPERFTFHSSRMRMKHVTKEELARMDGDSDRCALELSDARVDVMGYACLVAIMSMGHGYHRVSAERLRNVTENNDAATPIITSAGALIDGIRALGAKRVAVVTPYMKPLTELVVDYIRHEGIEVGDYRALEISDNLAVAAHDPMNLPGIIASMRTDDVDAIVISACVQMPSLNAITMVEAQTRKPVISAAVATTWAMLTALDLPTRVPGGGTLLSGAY

purified protein = substrate: Oc1ccc(O)nc1; test: purified protein; type: biochemical, Pseudomonas putida; conditions: 0.025 mM Fe2+, 18.2 mM Tris-HCl pH 8.0, 20°C

Molecule: O=CNC(=O)/C=C\C(=O)O [NFM]
coupled formate dehydrogenase assay, NADH at 340 nm (Nfo): Nfo activity was measured through its production of formate by a coupled reaction

Molecule: NC(=O)/C=C\C(=O)O [maleamic acid]
coupled glutamate dehydrogenase assay, NADPH at 340 nm (Ami): Purified Ami (Fig. 3A) transformed maleamic acid to maleic acid

Km (Iso): 689 µM
Molecule: O=C(O)/C=C\C(=O)O [maleate]

B1: Hpo (Pseudomonas putida S16) (protein)
chain: MDHVSFTEICLRQLKMSGVHEGERLIVLTQGHERLAYADAFMAAGQRLGAEMYHMRLPSPLPSNGWAVGVTGLADLPGAVEALKNCDMLIDCVFLLFSAEQFEIQAAGTRILTAVEPPELLARMLPFPELREKVSIAAELVENAKDMRITSPHGTDITYKLNTYPTIAEYACTDTPGRWDHWPSGFVFTGGDDDGVDGTIVVAPGDVLLPQNLMVREPITYTIEKGWIVDIRGGLEAQIVNSYMDSFNDPRGKGMSHVGWGMNPHAKWHNFVPGQFTGGMGMELRSFYGNVMFSTGPNNELGGSNDTACHLDIPMRNCSLFLDDTPVVIDGDIVVKEIQLVQR
Km (purified protein): 0.168 µM

— paper PMC3332521 (Scientific Reports, 2012)
